According to article PMC9854868, “Structure–Activity Relationship Studies of Substitutions of Cationic Amino Acid Residues on Antimicrobial Peptides” (Antibiotics, 2022):
Values after ≈ are worked out from the molar mass of the structure shown. Where two headings read alike, the source gives them in different places. Square brackets hold non-standard residues; d marks the D form. Ends that are not written are not given here. Peptide text beside a SMILES is read from it. Orn = NCCC[C@H](N)C(=O)O; Dab = NCC[C@H](N)C(=O)O; Aib = CC(C)(N)C(=O)O

How the values were obtained:
S. aureus NBRC 13276 = assay type: cell-based, Staphylococcus aureus; conditions: NBRC 13276, 18 h
Procedure: (§1) The selected bacterial strains were obtained from the Biological Resource Center, NITE (NBRC; Tokyo, Japan). Escherichia coli DH5α cells were purchased from BioDynamics Laboratory, Inc. (Tokyo, Japan). The antimicrobial activities of the peptides against […] and three Gram-negative bacteria, S. aureus NBRC 13276, E. coli DH5α, P. aeruginosa NBRC 13275, and MDRP were measured using the standard broth microdilution method, as previously described. Briefly, the bacteria were inoculated and grown overnight at 37 °C on the media for other organisms i (agar medium) and then collected with the media for other organisms ii (liquid medium), according to the Japanese Pharmacopoeia 17th Edition. Each peptide was 2-fold serially diluted with an initial concentration of 4000 μM–1.56 μM in PBS for use. Next, 10 μL of the peptide solution per well was added to each well of a sterile 96-well plate. Subsequently, 90 μL per well of inoculation with 10^4 CFUs (colony forming units) per mL was added to each well, and the plate was incubated for 18 h at 35 °C.

human red blood cells = conditions: human RBCs in 172 mM Tris-HCl pH 7.6, 30 min at 37 °C, 100 to 0.39 μM, absorbance 535 nm; DMSO = 0%, M-Lycotoxin = 100%
Procedure: Human red blood cells (RBCs) were kindly supplied by the Japanese Red Cross Society (Tokyo, Japan) and were collected from volunteers under informed consent. The hemolysis test of peptides was performed using a previously reported method. In short, the RBCs were washed three times with 172 mM Tris-HCl buffer (pH = 7.6, wash buffer: WB), and 1.0 mL of sedimented erythrocytes was then transferred to 9.0 mL of WB. Then, 0.5 mL of this suspension was diluted in WB, and 50 µL of RBC suspension was incubated with 50 µL of each peptide for 30 min at 37 °C (final peptide conc from 100 to 0.39 μM). The suspensions were then centrifuged for 5 min at 400 rpm. The absorbance of the supernatant was measured at a wavelength of 535 nm. M-Lycotoxin [26] was used as a positive control, and the absorbances of the sample by treatment of DMSO and M-Lycotoxin were defined as 0 and 100%.

MDRP = assay type: cell-based, multidrug-resistant Pseudomonas aeruginosa; conditions: 18 h
Procedure: as §1

E. coli DH5α = assay type: cell-based, Escherichia coli
Procedure: as §1

[1] = Digestion assay with proteinase K; assay type: in vitro ADME; conditions: proteinase K (isolated protease); proteinase K 0.002% (v/v), peptide 1 mM, 37 °C, 24 h, read-out HPLC, two independent experiments; read-out: remaining peptide after treatment with proteinase K
Procedure: (§2) The digestion assay was performed using Proteinase K of the digestive enzyme. Peptides (1 mM) were treated with 0.002% (v/v) Proteinase K and peptides were incubated at 37 °C for 2–24 h. A solution (0.1% TFA/H2O/MeCN) was added to quench the enzymatic reaction. The peptides were evaluated using analytical HPLC and a Discovery® BIO Wide Pore C18 column (25 cm × 4.6 mm, solvent A: 0.1% TFA/water, solvent B: 0.1% TFA/MeCN, flow rate: […], gradient: 10–60% gradient of solvent B over 30 min). Reproducibility was confirmed by the two independent experiments.

P. aeruginosa NBRC 13275 = assay type: cell-based, Pseudomonas aeruginosa; conditions: NBRC 13275, 18 h
Procedure: as §1

proteinase K = proteinase K (Parengyodontium album, UniProt P06873); assay: Digestion assay with proteinase K; assay type: in vitro ADME; conditions: proteinase K 0.002% (v/v), peptide 1 mM, 37 °C, 2–24 h, HPLC; replacing Lys with Orn
Sequence of proteinase K (P06873 106-384): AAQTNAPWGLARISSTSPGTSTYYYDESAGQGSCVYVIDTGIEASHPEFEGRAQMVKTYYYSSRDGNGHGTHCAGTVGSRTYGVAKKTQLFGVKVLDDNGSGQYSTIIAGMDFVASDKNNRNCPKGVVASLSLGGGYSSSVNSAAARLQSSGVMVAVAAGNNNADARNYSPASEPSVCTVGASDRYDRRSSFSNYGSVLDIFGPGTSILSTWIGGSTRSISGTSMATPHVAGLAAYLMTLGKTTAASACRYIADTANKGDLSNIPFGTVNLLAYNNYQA
Procedure: as §2

Row | Compound | MIC, Gram (+), S.a. (S. aureus NBRC 13276) [µM] | Hemolysis (concentration that showed hemolytic activity greater than 50%) (human red blood cells) [µM] | MIC, Gram (–), MDRP (MDRP) [µM] | MIC, Gram (–), E.Coli (E. coli DH5α; DH5α, 18 h) [µM] | remaining at 24 h, 1 mM [1] [%] | MIC, Gram (–), P.a. (P. aeruginosa NBRC 13275) [µM] | prolongation of half life time (t1/2) against proteinase K versus peptide 1 (proteinase K) | MIC, Gram (–), E.Coli (E. coli DH5α; E. coli DH5α, broth microdilution, 10^4 CFU per mL, 18 h at 35 °C, final concentration 0.39 to 100 μM, lowest concentration that completely inhibited growth) [µM]
1 | CC[C@H](C)[C@H](NC(=O)CN)C(=O)N[C@@H](CCCCN)C(=O)N[C@@H](CCCCN)C(=O)N[C@@H](Cc1ccccc1)C(=O)N[C@@H](CC(C)C)C(=O)N[C@@H](CCCCN)C(=O)N[C@@H](CO)C(=O)NC(C)(C)C(=O)N[C@@H](CCCCN)C(=O)N[C@@H](CCCCN)C(=O)N[C@@H](Cc1ccccc1)C(=O)N[C@H](C(=O)N[C@@H](CCCCN)C(=O)NC(C)(C)C(=O)N[C@@H](Cc1ccccc1)C(=O)N[C@@H](CCCCN)C(N)=O)C(C)C [Peptide 1] (H-GIKKFLKS[Aib]KKFVK[Aib]FK-NH2) | 12.5 (≈ 24.9 µg/mL) | 100 | 3.13 (≈ 6.25 µg/mL) | 3.13 (≈ 6.25 µg/mL) | ~20 | 3.13 (≈ 6.25 µg/mL) |  | 
2 | CC[C@H](C)[C@H](NC(=O)CN)C(=O)N[C@@H](CCCN)C(=O)N[C@@H](CCCN)C(=O)N[C@@H](Cc1ccccc1)C(=O)N[C@@H](CC(C)C)C(=O)N[C@@H](CCCN)C(=O)N[C@@H](CO)C(=O)NC(C)(C)C(=O)N[C@@H](CCCN)C(=O)N[C@@H](CCCN)C(=O)N[C@@H](Cc1ccccc1)C(=O)N[C@H](C(=O)N[C@@H](CCCN)C(=O)NC(C)(C)C(=O)N[C@@H](Cc1ccccc1)C(=O)N[C@@H](CCCN)C(N)=O)C(C)C [Peptide 2] (H-GI[Orn][Orn]FL[Orn]S[Aib][Orn][Orn]FV[Orn][Aib]F[Orn]-NH2) | 12.5 (≈ 23.7 µg/mL) | 50 | 3.13 (≈ 5.94 µg/mL) | 3.13 (≈ 5.94 µg/mL) | 41 | 6.25 (≈ 11.9 µg/mL) | up to approximately two times | 
3 | CC[C@H](C)[C@H](NC(=O)CN)C(=O)N[C@@H](CCN)C(=O)N[C@@H](CCN)C(=O)N[C@@H](Cc1ccccc1)C(=O)N[C@@H](CC(C)C)C(=O)N[C@@H](CCN)C(=O)N[C@@H](CO)C(=O)NC(C)(C)C(=O)N[C@@H](CCN)C(=O)N[C@@H](CCN)C(=O)N[C@@H](Cc1ccccc1)C(=O)N[C@H](C(=O)N[C@@H](CCN)C(=O)NC(C)(C)C(=O)N[C@@H](Cc1ccccc1)C(=O)N[C@@H](CCN)C(N)=O)C(C)C [Peptide 3] (H-GI[Dab][Dab]FL[Dab]S[Aib][Dab][Dab]FV[Dab][Aib]F[Dab]-NH2) | 12.5 (≈ 22.5 µg/mL) | 25 | 6.25 (≈ 11.2 µg/mL) | 3.13 (≈ 5.63 µg/mL) |  | 6.25 (≈ 11.2 µg/mL) |  | 
4 | CC[C@H](C)[C@H](NC(=O)CN)C(=O)N[C@@H](CCCNC(=N)N)C(=O)N[C@@H](CCCNC(=N)N)C(=O)N[C@@H](Cc1ccccc1)C(=O)N[C@@H](CC(C)C)C(=O)N[C@@H](CCCNC(=N)N)C(=O)N[C@@H](CO)C(=O)NC(C)(C)C(=O)N[C@@H](CCCNC(=N)N)C(=O)N[C@@H](CCCNC(=N)N)C(=O)N[C@@H](Cc1ccccc1)C(=O)N[C@H](C(=O)N[C@@H](CCCNC(=N)N)C(=O)NC(C)(C)C(=O)N[C@@H](Cc1ccccc1)C(=O)N[C@@H](CCCNC(=N)N)C(N)=O)C(C)C [Peptide 4] (H-GIRRFLRS[Aib]RRFVR[Aib]FR-NH2) | 3.13 (≈ 6.86 µg/mL) | 6.25 | 12.5 (≈ 27.4 µg/mL) | 3.13 (≈ 6.86 µg/mL) |  | 12.5 (≈ 27.4 µg/mL) |  | 
5 | CC[C@H](C)[C@H](NC(=O)CN)C(=O)N[C@@H](Cc1c[nH]cn1)C(=O)N[C@@H](Cc1c[nH]cn1)C(=O)N[C@@H](Cc1ccccc1)C(=O)N[C@@H](CC(C)C)C(=O)N[C@@H](Cc1c[nH]cn1)C(=O)N[C@@H](CO)C(=O)NC(C)(C)C(=O)N[C@@H](Cc1c[nH]cn1)C(=O)N[C@@H](Cc1c[nH]cn1)C(=O)N[C@@H](Cc1ccccc1)C(=O)N[C@H](C(=O)N[C@@H](Cc1c[nH]cn1)C(=O)NC(C)(C)C(=O)N[C@@H](Cc1ccccc1)C(=O)N[C@@H](Cc1c[nH]cn1)C(N)=O)C(C)C [Peptide 5] (H-GIHHFLHS[Aib]HHFVH[Aib]FH-NH2) | >50 | >100 | >50 | >50 |  | >50 |  | 
6 | GIGKFLHSAKKFGKAFVGEIMNS-NH2 [Mag2, magainin 2, reference compound] | 100 | >100 | 12.5 |  |  | 12.5 |  | 3.13
